From US9943500B2, “Methods of treating topical microbial infections” (LUODA PHARMA PTY LIMITED, priority 2013, dated 2018)

Tests used:
red blood cells = assay: Eukaryotic cell toxicity testing, erythrocyte haemolysis; type: cell-based; conditions: 2% blood cell solution, one hour at 37° C.
Protocol: Erythrocyte haemolysis was used in order to test the toxicity of all five compounds to eukaryotic cells. Blood samples were washed using 9.1 g/L saline solution and centrifuged at 2500 rpm for 10 minutes. This process was repeated until cellular debris and partially lysed cells were removed from solution. 2 mL of the remaining blood cells were suspended in 98 mL of 9.1 g/L saline solution to produce a 2% blood cell solution, which was dispensed in 90 μL volumes into the wells of a 96 well plate. The compound solutions as well as chloramphenicol were prepared from stock solution to a concentration of 256 μg/mL (as described above). Chloramphenicol was used as a negative control for erythrocyte lysis while a ready to use solution of amphotericin B was used as a positive control. 90 μL of the compounds and controls were added to the final well in different rows. These compounds were serially diluted across the row in order to test the different concentrations of antimicrobials. Wells containing only 2% blood solution were also used to assess variation between readings from different columns on the 96 well plates. These tests were incubated at 37° C. for one hour and then assessed for lysis both visually and using a microplate reader to measure optical density at 600 nm wavelengths. Each test was performed in duplicate and then repeated in quadruplicate in order to ensure accuracy.

[1] = tested on: methicillin-sensitive and methicillin-resistant strains of Staphylococcus; assay: Minimum bactericidal concentration determination, Staphylococcus isolates (Example 1)
Protocol: Following determination of the MIC using the 96 well MIC plate, a variation of the drop plate method was used to determine minimum bactericidal concentration (MBC) for each of the test compounds. These were analysed using samples taken from the MIC plate following incubation. […] Each concentration was pipetted in duplicate with duplicates being pipetted on an inner ring of drops. The plates were incubated at 37° C. overnight and assessed the following day for growth. The MBC was defined as the concentration at which 99.9% of colonies were eradicated, which was visually assessed by a lack of growth on the agar where the drop was placed.

[2] = tested on: methicillin sensitive and methicillin-resistant staphylococci; assay: Minimum inhibitory concentration assay, 42 Staphylococcus isolates (Example 1); type: cell-based
Protocol: Forty-two isolates of Staphylococcus of varying species and strain type were collected from isolate collections. Biochemical testing including coagulase, latex agglutination testing for protein A, Vogues-Proskauer tests and resistance to polymyxin B were used to identify the species of Staphylococcus. All isolates were also screened for resistance to various antimicrobials commonly used for the treatment of skin infections. This was performed using the disk diffusion method and resistance standards as outlined by the CLSI. The following antimicrobials were used: amoxicillin-clavulanic acid (30 μg), cephalothin (30 μg), clindamycin (2 μg), enrofloxacin (5 μg), erythromycin (15 μg), gentamicin (10 μg), imipenem (10 μg), oxacillin (1 μg), penicillin G (10 units), tetracycline (30 μg), 1:19 trimethoprim-sulfamethoxazole (25 μg) and vancomycin (30 μg).
Minimum inhibitory concentration tests were performed according to CLSI Standards (CLSI 2012). 90 μL of one of the test compound solutions, or ampicillin, was added to the end column of a 96 well plate that contained 90 μL of CAMHB in each well. The solutions were then serially diluted across the row, leaving 2 columns for positive and negative controls (FIG. 2). A bacterial suspension was prepared by adding fresh colonies obtained from an overnight culture on Sheep Blood Agar (SBA) to a 9.1 g/L saline solution. This suspension was adjusted to a concentration of between 4×10^8 and 5×10^8 CFU/mL. […] 1 mL of this suspension was added to 9 mL of saline before being added to all wells, excluding the negative control wells, in 10 μL volumes giving a final concentration of between 4×10^5 and 5×10^5 CFU/mL in each well. The tests were then incubated for 24 hours at 37° C. and then assessed both visually and using OD readings from a microplate reader at a wavelength of 600 nm. These tests were performed in duplicate but repeated if discrepancies were observed.
The minimum inhibitory concentration (MIC) was determined to be the lowest concentration of antibiotic that prevented growth of bacteria both visually and using OD readings. Direct statistical comparisons between the test compounds and ampicillin could not be performed in light of confidential information restrictions, such as restrictions on disclosure of information relating to the compound structure, such as molecular weight. Instead, MIC values were collated and used to determine the lowest concentration of each compound that was effective against 50% and 90% of isolates, referred to as the MIC50 and MIC90 respectively. These values as well as the range of MIC values were then used for direct comparisons between test compounds and for general comparisons with ampicillin.

[3] = tested on: ATCC 49775 reference strain; assay: Macrodilution time-kill assay (viable counts); conditions: 24 hours; all concentrations tested
Protocol: (§1) Due to the detection limit of the OD measurements, the time-kill assays were also performed in macrodilution. In 15 mL tubes, 9 mL volumes of the test compounds in CAMHB were prepared at one, four and eight times the MIC concentration and 9 mL volumes of ampicillin were prepared in CAMHB at one and four times the MIC. 1 mL of a 4 to 5×10^6 bacterial suspension (as prepared for MIC testing) was added to each of the tubes as well as a growth control tube containing only 9 mL of CAMHB. These tubes were incubated at 37° C. in an orbital shaker rotating at 100 rpm for 24 hours. At 0, 1, 4, 8, 12 and 24 hours after addition of the bacteria, 100 μL samples were removed from each tube and serial diluted in 9.1 g/L saline solution. The dilutions were then plated in duplicate onto plate count agar and incubated for 24 hours at 37° C. After incubation, viable counts were obtained from the number of colonies visible on the agar and these were used to calculate the number of CFU/mL at each time point. For the macrodilution time-kill analysis, only the ATCC 49775 reference strain and MRSA 9 were assessed in order to further investigate the antibacterial activity against methicillin-resistant strains. These macrodilution time-kill assays were independently repeated and bactericidal activity was defined as a ≥3 log decrease in the number of CFU/mL.

MRSA 9 = assay: Macrodilution time-kill assay (viable counts); conditions: 24 hours; all concentrations tested
Protocol: as §1

## CC[C@@H](C(=O)[C@@H](C)[C@@H](O)[C@H](C)CCc1ccc(C)c(O)c1C(=O)O)[C@H]1O[C@](CC)([C@H]2CC[C@](O)(CC)[C@H](C)O2)C[C@@H]1C [LP 1369, Lasalocid]
Red blood cells
  concentration at which lysis was most visually evident: 64000 ng/mL
  concentration range in which some lysis of cells was observed: 32000 to 128000 ng/mL
[1]; lower concentrations
  bactericidal activity (MBC testing): some bactericidal activity in lower concentrations
[1]; methicillin-sensitive isolates
  MBC50 rank among test compounds: lowest MBC50 values
[1]; methicillin-sensitive versus methicillin-resistant strains
  strain type for which bactericidal activity was more consistent: more consistently for methicillin-sensitive strains
[2]
  MIC50 and MIC90 values compared with ampicillin: considerably lower than ampicillin
[3]
  decrease in the number of viable bacteria: < 3 log10
MRSA 9
  decrease in the number of viable bacteria: < 3 log10
